Test results published in patent publication US8026362B2, “Non-nucleoside reverse transcriptase inhibitors” (Roche Palo Alto LLC, priority 2007, dated 2011).

Tests used:
HIV-1 RT = HIV-1 RT (Human immunodeficiency virus type 1 group M subtype B, UniProt P04585); assay: HIV-1 Reverse Transcriptase Assay (RNA-dependent DNA polymerase activity, SPA); format: biochemical; settings: 30° C., 30 min, 10% DMSO
Method: RNA-dependent DNA polymerase activity was measured using a biotinylated primer oligonucleotide and tritiated dNTP substrate. Newly synthesized DNA was quantified by capturing the biotinylated primer molecules on streptavidin coated Scintillation Proximity Assay (SPA) beads (Amersham). The sequences of the polymerase assay substrate were: 18 nt DNA primer, 5′-Biotin/GTC CCT GTT CGG GCG CCA-3′; 47 nt RNA template, 5′-GGGUCUCUCUGGUUAGACCACUCUAGCAGUGGCGCCCGAACAGGGAC-3′. The biotinylated DNA primer was obtained from the Integrated DNA Technologies Inc. and the RNA template was synthesized by Dharmacon. The DNA polymerase assay (final volume 50 μl) contained 32 nM biotinylated DNA primer, 64 nM RNA substrate, dGTP, dCTP, dTTP (each at 5 μM), 103 nM [^3H]-dATP (specific activity=[…]), in 45 mM Tris-HCl, pH 8.0, 45 mM NaCl, 2.7 mM Mg(CH3COO)2, 0.045% Triton X-100 w/v, 0.9 mM EDTA. The reactions contained 5 ul of serial compound dilutions in 100% DMSO for IC50 determination and the final concentrations of DMSO were 10%. Reactions were initiated by the addition of 30 μl of the HIV-RT enzyme (final concentrations of 1-3 nM). Protein concentrations were adjusted to provide linear product formation for at least 30 min of incubation. After incubation at 30° C. for 30 min, the reaction was quenched by addition of 50 μl of 200 mM EDTA (pH 8.0) and […] SA-PVT SPA beads (Amersham, RPNQ0009, reconstituted in 20 mM Tris-HCl, pH 8.0, 100 mM EDTA and 1% BSA). The beads were left to settle overnight and the SPA signals were counted in a 96-well top counter-NXT (Packard).

[1] = tested on: HXB2-strain of HIV in MT4 cells; assay: Antiviral assay: protection of HIV-infected MT4 cells from cell death (MTT); format: cell-based; settings: Human immunodeficiency virus 1, 120 h; MT4 cells infected with HXB2-strain of HIV, 5 days, MTT viability
Method: Anti-HIV antiviral activity was assessed using an adaptation of the method of Pauwels et al. {Pauwels et al., J Virol Methods 1988 20:309-321}. The method is based on the ability of compounds to protect HIV-infected T lymphoblastoid cells (MT4 cells) from cell-death mediated by the infection. The endpoint of the assay was calculated as the concentration of compound at which the cell viability of the culture was preserved by 50% (‘50% inhibitory concentration’, IC50). The cell viability of a culture was determined by the uptake of soluble, yellow 3-[4,5-dimethylthiazol-2-yl]-2,5-diphenyltetrazolium bromide (MTT) and its reduction to a purple insoluble formazan salt. After solubilization, spectrophotometric methods were employed to measure the amount of formazan product. […]
A fresh solution of 5 mg/mL MTT was prepared in 0.01 M phosphate buffered saline, pH 7.2 and 20 microliters added to each culture. […] When the formazan deposit was fully solubilized by further mixing, the absorbance (OD) of the cultures was measured at 540 nm and 690 nm wavelength (690 nm readings were used as blanks for artifacts between wells). The percent protection for each treated culture was then calculated from the equation: […]

For `N#Cc1cc(Cl)cc(Oc2c(Br)ccc(Cn3cc(F)c(=O)[nH]c3=O)c2F)c1` [Compound I-6, 3-[6-Bromo-2-fluoro-3-(5-fluoro-2,4-dioxo-3,4-dihydro-2H-pyrimidin-1-ylmethyl)-phenoxy]-5-chloro-benzonitrile], which IC50 (HIV-1 RT) is on record?
The IC50 was 2.2 nM.

And the melting point?
The melting point was 234 to 236 °C.

Which results are given for `Cc1cn(CCc2ccc(Br)c(Oc3cc(Cl)cc(C#N)c3)c2F)c(=O)[nH]c1=O` [Compound I-14, 3-{6-Bromo-2-fluoro-3-[2-(5-methyl-2,4-dioxo-3,4-dihydro-2H-pyrimidin-1-yl)-ethyl]-phenoxy}-5-chloro-benzonitrile]?
IC50 (HIV-1 RT): 7 nM; melting point: 198 to 200 °C

With `N#Cc1cc(Cl)cc(Oc2c(Cl)ccc(Cn3cc(Cl)c(=O)[nH]c3=O)c2F)c1` [Compound I-18, 3-Chloro-5-[6-chloro-3-(5-chloro-2,4-dioxo-3,4-dihydro-2H-pyrimidin-1-ylmethyl)-2-fluoro-phenoxy]-benzonitrile] as the compound, how does the IC50 (HIV-1 RT) read?
The IC50 was 3.7 nM.

What about the melting point of the same compound?
The melting point was 267.2 to 268 °C.

For `Cc1cn(Cc2ccc(Br)c(Oc3cc(Cl)cc(C#N)c3)c2F)c(=O)nc1N` [Compound I-13, 3-[3-(4-Amino-5-methyl-2-oxo-2H-pyrimidin-1-ylmethyl)-6-bromo-2-fluoro-phenoxy]-5-chloro-benzonitrile], which IC50 (HIV-1 RT) is on record?
Its IC50 is 19.6 nM.

What about the melting point of the same compound?
The melting point was 262.7 to 263.7 °C.

For `CC1CN(Cc2ccc(Br)c(Oc3cc(Cl)cc(C#N)c3)c2F)C(=O)NC1=O` (stereo not shown) [Compound I-29, 3-[6-Bromo-2-fluoro-3-(5-methyl-2,4-dioxo-tetrahydro-pyrimidin-1-ylmethyl)-phenoxy]-5-chloro-benzonitrile], which IC50 (HIV-1 RT) is on record?
The IC50 was 85.8 nM.

What about the melting point of the same compound?
The melting point was 227.8 to 228.6 °C.

With `Cc1cn(Cc2ccc(Br)c(Oc3cc(Cl)cc(C#N)c3)c2F)c(=O)[nH]c1=O` [Compound I-2, 3-[6-Bromo-2-fluoro-3-(5-methyl-2,4-dioxo-3,4-dihydro-2H-pyrimidin-1-ylmethyl)-phenoxy]-5-chloro-benzonitrile] as the compound, how does the IC50 (HIV-1 RT) read?
The IC50 was 3.9 nM.

What about the IC50 [1] of the same compound?
Its IC50 is 3.1 nM.

What about the melting point of the same compound?
Its melting point is 223.1 to 224.2 °C.

Which results are given for `N#Cc1cc(Cl)cc(Oc2c(Br)ccc(Cn3cc(C(F)(F)F)c(=O)[nH]c3=O)c2F)c1` [Compound I-7, 3-[6-Bromo-3-(2,4-dioxo-5-trifluoromethyl-3,4-dihydro-2H-pyrimidin-1-ylmethyl)-2-fluoro-phenoxy]-5-chloro-benzonitrile]?
IC50 (HIV-1 RT): 6 nM; melting point: 110 to 112 °C

Which IC50 (HIV-1 RT) does the source give for `N#Cc1cc(C#N)cc(Oc2c(Br)ccc(Cn3cc(Cl)c(=O)[nH]c3=O)c2F)c1` [Compound I-9, 5-[6-Bromo-3-(5-chloro-2,4-dioxo-3,4-dihydro-2H-pyrimidin-1-ylmethyl)-2-fluoro-phenoxy]-isophthalonitrile] here?
Its IC50 is 5.2 nM.

What about the melting point of the same compound?
Its melting point is 255 to 255.6 °C.

With `N#Cc1cc(Cl)cc(Oc2c(Br)ccc(CN3CC(=O)NC3=O)c2F)c1` [Compound I-20, 3-[6-Bromo-3-(2,4-dioxo-imidazolidin-1-ylmethyl)-2-fluoro-phenoxy]-5-chloro-benzonitrile] as the compound, how does the IC50 (HIV-1 RT) read?
The IC50 was 9 nM.

And the IC50 [1]?
The IC50 was 4.2 nM.

What about the melting point of the same compound?
The melting point was 131.5 to 132.8 °C.

Which IC50 (HIV-1 RT) does the source give for `Cc1cn(Cc2ccc(Br)c(Oc3cc(Cl)cc(C#N)c3)c2F)c(=S)[nH]c1=O` [Compound I-23, 3-[6-Bromo-2-fluoro-3-(5-methyl-4-oxo-2-thioxo-3,4-dihydro-2H-pyrimidin-1-ylmethyl)-phenoxy]-5-chloro-benzonitrile] here?
Its IC50 is 5.5 nM.

And the melting point?
The melting point was 225 to 226 °C.
